Patent US20120177779A1, “FISH FEEDING STIMULANT AND PRODUCT” (priority 2008, published 2012)

What was measured:
carp [1] = experiment: Stimulatory response (average feeding time/fish) to VAL/LYS solutions, FIG. 8; type: in vivo
Source text: FIG. 8 is a graph showing stimulatory response as a function of composition for mixtures of L-Valine (V) and L-Lysine (K).
The relationship between stimulatory response (as determined through average feeding time/fish) and AA ratio for a variety of net equimolar mixtures comprised of VAL (V) and LYS (K), as well as reference solutions containing the respective individual AAs is shown in FIG. 8.
(§1) The data in FIG. 8 leads to several conclusions. […] Importantly, members of both the ‘A’ and ‘SP’ AA groups are NOT considered to be physiologically significant. […] Thus, as a direct consequence, it is strongly inferred that only AAs belonging to the ‘B’ and ‘LN’ groups are physiologically significant with regard to the fishes' ability to detect forage via the recognition of solvated AAs.

carp [2] = settings: in vivo
Source text: as §1

[3] = physiological pH; cited from earlier work

In the case of NCCCC[C@H](N)C(=O)O [LYS, L-Lysine], the “stimulatory response (average feeding time/fish)” value (carp [1]; net equimolar VAL/LYS mixtures and 0.5% single AA reference solutions) is reported as “significantly enhanced stimulatory response”.

In the case of CC(C)[C@H](N)C(=O)O [VAL, L-Valine], the “stimulatory response relative to that observed for a similar strength LYS solution” value (carp [1]; similar concentration (0.5%) solution) is reported as “approximately 50%”.

In the case of N[C@@H](CO)C(=O)O [SER, serine], the “physiological distress on exposure” value (carp [2]) is reported as “signs of physiological distress”.

For N[C@@H](Cc1c[nH]cn1)C(=O)O [L-Histidine], the fraction protonated [3] is given as “approximately 10%”.

In the case of NC(=O)CC[C@H](N)C(=O)O [GLU, glutamine], the “physiological distress on exposure” value (carp [2]) is reported as “signs of physiological distress”.
